From PubChem BioAssay (NCI)
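These data come from cells grown in 96-well plates and exposed to compound for 48 hours at five concentrations. GI50 = concentration required for 50% inhibition of growth. Definition used: TGI = concentration required for complete inhibition of growth.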

Columns and labels:
Assay in all cases: DTP human tumour cell line panel, 48 h
[1] = tested on: MOLT-4 leukemia
[2] = tested on: OVCAR-4 ovarian
[3] = tested on: ACHN renal
[4] = tested on: EKVX NSCLC
[5] = tested on: K-562 leukemia
[6] = tested on: UACC-62 melanoma
[7] = tested on: SK-OV-3 ovarian
[8] = tested on: HL-60(TB) leukemia
[9] = tested on: OVCAR-8 ovarian
[10] = tested on: RPMI-8226 leukemia

Row | Structure (SMILES) | TGI [1] [µM] | TGI [2] [µM] | TGI [3] [µM] | TGI [4] [µM] | TGI [5] [µM] | TGI [6] [µM] | TGI [7] [µM] | TGI [8] [µM] | TGI [9] [µM] | TGI [10] [µM] | GI50 [1] [µM] | GI50 [2] [µM] | GI50 [3] [µM] | GI50 [4] [µM] | GI50 [5] [µM] | GI50 [6] [µM] | GI50 [7] [µM] | GI50 [8] [µM] | GI50 [9] [µM] | GI50 [10] [µM]
1 | CC1CCC2(NC1)OC1CC3[C@@H]4CC=C5C=CCC[C@]5(C)C4CC[C@]3(C)C1C2C (some centres undefined) | 66.3 | 51 | 44.6 | 55.5 | 46.6 | 42.5 | 68.4 | 29.7 | 48.1 | 46 | – | – | – | – | – | – | – | – | – | –
2 | CC(=O)O[C@H]1CC[C@@]2(C)C(CC[C@]3(C)C2CC[C@]2(C)Oc4c(C)cc(O)cc4C[C@@H]23)C1(C)C (some centres undefined) | 9.75 | 22.2 | 17.5 | 46.9 | 29.3 | 23.7 | 22.2 | 14.7 | 23.8 | 6.96 | – | – | – | – | – | – | – | – | – | –
3 | CNc1nc(C)c(-c2nc(Nc3cccc(S(N)(=O)=O)c3)ncc2F)s1 | 0.185 | 12.5 | 11.7 | 3.78 | 24.4 | 0.0741 | 12.4 | 0.108 | 15.9 | 0.273 | 0.0309 | 0.0524 | 0.0266 | 0.0747 | 0.0668 | 0.0224 | 0.0925 | 0.0309 | 0.0394 | 0.0958
4 | O=c1[nH]c(=O)n(C2CC(O)C(CO)O2)cc1C(OCC(F)(F)F)OCC(F)(F)F (centres undefined) | > 100 | > 100 | > 100 | > 100 | > 100 | > 100 | > 100 | > 100 | > 100 | > 100 | – | – | – | – | – | – | – | – | – | –
5 | OCCN(CCO)c1cccc(N(CCO)CCO)c1 | > 100 | > 100 | > 100 | > 100 | > 100 | > 100 | > 100 | > 100 | > 100 | > 100 | – | – | – | – | – | – | – | – | – | –
6 | COc1ccc(C2=CC(c3cc(OC)c(OC)c(OC)c3)NC(=O)N2)cc1OC (centres undefined) | 12.5 | > 100 | 43.6 | 23.2 | 24.5 | 16.8 | > 100 | 6.52 | > 100 | 19.3 | 2.41 | 3.61 | 3.5 | 2.85 | 1.96 | 4.31 | 3.67 | 1.57 | 4.25 | 3.03
7 | Cc1cc2c(cc1C)[n+](=O)c(C(=O)/C=C/c1ccc(Cl)cc1)c(C)n2[O-] | 73.5 | 81.9 | 62 | > 100 | > 100 | 44.3 | > 100 | > 100 | 84.2 | 60.5 | – | – | – | – | – | – | – | – | – | –
8 | C=C1C(=O)O[C@H]2[C@H]1CC/C(CNS(=O)(=O)c1ccc3ccccc3c1)=C\CC[C@@]1(C)O[C@@H]21 | 4.71 | 18.7 | 1.91 | 11.1 | 4.46 | 4.01 | 30 | 3.96 | 12.6 | 4.5 | 1.56 | 4.2 | 0.514 | 2.48 | 0.691 | 1.64 | 16.3 | 1.63 | 3.36 | 1.46
9 | O=C(O)CNS(=O)(=O)c1ccc(NC(=O)c2ccc(F)cc2)cc1 | > 100 | > 100 | > 100 | > 100 | > 100 | > 100 | > 100 | > 100 | > 100 | > 100 | – | – | – | – | – | – | – | – | – | –
10 | CCOCC(=O)N[C@H]1CCc2cc(OC)c(OC)c(OC)c2-c2ccc(SC)c(=O)cc21 | > 62.6 | > 100 | > 35.7 | > 100 | 12.5 | > 100 | 0.398 | < 0.0347 | 4.64 | > 100 | – | – | – | – | – | – | – | – | – | –
11 | COc1cc([C@@H]2c3cc4c(cc3C(Br)[C@H]3COC(=O)[C@H]23)OCO4)cc(OC)c1OC (some centres undefined) | > 100 | > 100 | > 100 | > 100 | > 100 | > 100 | > 100 | – | – | > 100 | 0.431 | 0.541 | 0.241 | 0.533 | 0.185 | 0.187 | 0.312 | 0.223 | 0.31 | 0.507
12 | Cc1cc(=O)c2cc(N=Cc3ccc([N+](=O)[O-])o3)ccc2o1 | > 100 | > 100 | > 100 | > 100 | > 100 | > 100 | > 100 | > 100 | – | > 100 | – | – | – | – | – | – | – | – | – | –
13 | CN(C)C(=S)NN=C(c1ccccn1)c1ccccn1 | 2.15 | > 83.1 | 10.7 | 23.8 | > 100 | 0.739 | 16.7 | – | 27 | > 100 | < 0.01 | < 0.01 | < 0.0108 | 0.0247 | – | 0.077 | 0.0487 | < 0.0479 | 0.0361 | –
14 | COC(=O)Nc1nc2ccc(Oc3ccc(NC(=O)Nc4cccc(Br)c4)cc3)cc2[nH]1 | > 15.4 | 7.42 | > 25 | > 25 | > 12 | 7.41 | 15.3 | > 10.6 | > 20 | > 25 | 4.03 | 3.39 | 5.53 | 8.28 | 0.162 | 0.906 | 2.95 | 1.06 | 4.32 | 8.24
15 | CN(C)c1ccc(C(=O)c2ccc(N(C)C)c(N)c2)cc1N | > 57.6 | > 100 | > 100 | > 100 | > 86.5 | > 64.5 | > 45 | 9.08 | > 100 | > 100 | 2.76 | 6.26 | 14.8 | 8.87 | 0.867 | 2.32 | 5.57 | 1.29 | 8.99 | 1.33
16 | COc1cc2c(cc1OCCCOC1=C=C=C(c3ccc4c(c3)c3cc(-c5ccc(OCCCOc6cc7c(cc6OC)C(=O)N6CCC[C@H]6C=N7)cc5)ccc3n4S(=O)(=O)c3ccc(C)cc3)C=C1)N=C[C@@H]1CCCN1C2=O | > 50 | 30.9 | 7.8 | 22.9 | > 18.6 | 8.76 | 16.5 | > 11.4 | > 17 | > 14.5 | 0.739 | 3.58 | 1.75 | 9.35 | 1.06 | 1.89 | 5.42 | 0.826 | 1.54 | 0.665
17 | NC(=O)C(Br)CBr (centres undefined) | 4.15 | 2.55 | 2.18 | 4.92 | 5.29 | 6.07 | 25.1 | 3.05 | 4.44 | 11.9 | 1.42 | 1.25 | 0.816 | 1.9 | 1.38 | 2.14 | 12 | 0.728 | 1.8 | 2.82
18 | CC/C=C\C/C=C\C[C@H](O)C/C=C1/C(=O)C=C[C@H]1C/C=C\CCC(=O)OC | > 8.25 | > 8.25 | > 8.25 | > 8.25 | > 8.25 | 7.16 | > 8.25 | > 8.25 | > 8.25 | 5.01 | 2.93 | > 8.25 | 3.06 | > 8.25 | 2.26 | 1.79 | > 8.25 | 2.49 | 2.51 | 1.59
19 | NC1CCCCC1N.O=C([O-])P(=O)([O-])[O-].[Na+].[Pt+4] (centres undefined) | > 100 | > 100 | > 100 | > 100 | > 100 | > 100 | > 100 | > 100 | > 100 | > 100 | 29.1 | > 100 | > 100 | > 100 | > 100 | > 100 | > 100 | 75.9 | 98.2 | 22.2
20 | C[C@]12CC/C(=N\N)C[C@@H]1CC[C@@H]1[C@@H]2CC[C@]2(C)/C(=N/N)CC[C@@H]12 | > 100 | > 100 | > 100 | > 100 | > 100 | > 100 | > 100 | > 100 | > 100 | > 100 | > 100 | > 100 | > 100 | > 100 | > 100 | > 100 | > 100 | > 100 | > 100 | > 100
21 | C[C@@H]1COCCN1c1nc(-c2cnc(N)cc2C(F)F)nc(N2[C@H](C)COC[C@@H]2C)n1 | 9.15 | 11.9 | 11.8 | 5.77 | 17.4 | 2.74 | 1.34 | 19.5 | 21.4 | 4.28 | 0.295 | 0.278 | 0.265 | 0.21 | 0.379 | 0.116 | 0.166 | 0.863 | 0.367 | 0.174
22 | Nc1nc2c(c3ncccc13)C(c1ccc(Cl)c(Cl)c1)Cc1ncccc1-2 (centres undefined) | 15.2 | 18.6 | 16 | 18.4 | 17.3 | 12.5 | 12.6 | 16.2 | 36.5 | 34 | 3.3 | 5.76 | 4.55 | 4.86 | 2.67 | 2.28 | 3.49 | 3.09 | 4.24 | 3.81
23 | O=S(=O)([O-])[O-].[Cl-].[NH2-].[NH2-].[NH2-].[NH2-].[Ru+3].c1ccc(-c2cccnc2)cc1 | > 100 | > 100 | > 100 | > 100 | > 100 | > 100 | > 100 | > 100 | > 100 | > 100 | > 100 | > 100 | > 100 | > 100 | > 100 | > 100 | > 100 | > 100 | > 100 | > 100
24 | O=C1c2ccccc2-c2c1c1ccc([N+](=O)[O-])cc1c(=O)n2CCNCCCNCCn1c2c(c3ccc([N+](=O)[O-])cc3c1=O)C(=O)c1ccccc1-2 | 18.6 | 4.92 | 24.5 | 28.2 | 28.2 | 2.03 | 22.9 | 50 | 8.76 | 0.139 | 0.005 | 0.215 | 0.338 | 4.87 | 0.0492 | 0.372 | 6.75 | 1.5 | 0.0989 | 0.00538
25 | CC(=N\O)/C(C)=N/O.CC(=N\O)/C(C)=N/O.CC(=N\O)/C(C)=N/O.CC(=N\O)/C(C)=N/O.[Cu].[Cu] | 47.4 | 35.9 | 32.7 | 38.2 | 91.9 | 30.8 | 34.5 | 44.4 | 38.3 | 63.7 | 19.9 | 20.4 | 18.7 | 19.4 | 34.3 | 17.1 | 18.6 | 26.4 | 20.3 | 27.1
26 | CCNc1c(C(=O)N(CC)CC)c(=O)[nH]c2ncccc12 | > 100 | > 100 | > 100 | > 100 | > 100 | > 100 | > 100 | > 100 | > 100 | > 100 | – | – | – | – | – | – | – | – | – | –
27 | C=C(C)C(=O)OC1CC2(C)OC2CC(OC(C)=O)/C(C)=C/C2OC(=O)C(=C)C21 (centres undefined) | 6.69 | 23.7 | 3.34 | 18.2 | 4.62 | 17.8 | > 91.3 | 1.14 | 18.7 | 3.49 | – | – | – | – | – | – | – | – | – | –
28 | CC1=C(C(=O)Nc2ccc3[nH]ncc3c2)C(c2ccc(F)cc2)NC(=O)N1 (centres undefined) | > 25 | > 25 | > 25 | > 25 | > 25 | > 25 | > 25 | > 25 | > 25 | > 25 | > 25 | > 25 | > 25 | > 25 | > 25 | > 25 | > 25 | > 25 | > 25 | > 25
